For data set [1], the system named is NSCLC cells. The conditions noted are these: cited from earlier work.
The test system of data set [2] is NSCLC cells. The conditions noted are these: cited from earlier work. This is another data set of the same source.
The subject of a further data set is CCLE NSCLC cell lines. Description: Average IC50 and EC50 of selected compounds in PRISM drug screening data. The data set is classed as cell-based, human. Particulars: for EC50 / IC50: PRISM dataset, NSCLC cell lines, outliers (drug concentration value > 10) removed. The text has this:
The drug sensitivity data of human NSCLC cell lines were taken from multiple resources. The secondary PRISM repurposing dataset was obtained from the DepMap release 19Q4. […] A total of 64 NSCLC cell lines from GDSC1 and 58 NSCLC cell lines from GDSC2 were included in this study. Details of the categorization of drug sensitivity in each cell line were included in our previous publications.

A further data set has as its system NSCLC H460 cells. The conditions noted are these: in-vitro and in-vivo; cited from earlier work.
For data set [3], the system named is EGFR and HER2 transactivation. The conditions noted are these: cited from earlier work.
Data set [4] relates to late-stage, metastatic, Kras-mutant NSCLC. Particulars: compared with various combination therapies, chemo-, and immune therapy; cited from earlier work.
Data set [5] relates to human NSCLC A549 and NCI-H358 cells. The conditions noted are these: cited from earlier work.
The test system of the next data set is U87MG glioma cells. Particulars: cited from earlier work.
The test system of another data set is glioma tumor. Particulars: mouse xenograft model; cited from earlier work.
The test system of the next data set is U2OS and 143B lines. The conditions noted are these: cited from earlier work.
Data set [6] has as its system oxidative phosphorylation. The conditions noted are these: mitochondrial protonophore; cited from earlier work.
A further data set deals with refractory NSCLC. The conditions noted are these: refractory NSCLC patients; open-label phase II; cited from earlier work.
For the next data set, the system named is non-progressing NSCLC. Particulars: maintenance therapy, linsitinib added to erlotinib; cited from earlier work.
The next data set has as its system NSCLC. Particulars: linsitinib added to erlotinib, compared with erlotinib alone; cited from earlier work.
The subject of data set [7] is phosphorylated extracellular signal-regulated kinase (pERK). The conditions noted are these: patients with locally advanced/metastatic melanoma; clinically relevant doses; phase I; cited from earlier work.
A further data set concerns pERK. Particulars: patients with solid tumors; phase I; cited from earlier work.
In data set [8] the test system is Ki-ras-transformed rat fibroblasts. Particulars: concurrent suppression of ERK and mTOR-p70(S6K) pathways; cited from earlier work.
Data set [9] relates to human breast cancer MDA-MB-231 and HBC-4 cells. The conditions noted are these: cited from earlier work.
For data set [10], the system named is endogenous promoters containing activator protein 1 (AP-1) response elements. Particulars: genes lacking an AP-1 response element not affected; cited from earlier work.
For another data set, the system named is trophoblast. Particulars: fetal growth restriction; cited from earlier work.
Where [11] appears, read: induced by addition of ET-1 to NSCLC cells.
The mark [12] stands for this setting: BMS-754807 alone, A549 and NCI-H358.

Consider 26 compounds from patent publication US20240200147A1, “Non-Small Cell Lung Cancer Diagnosis and Treatment” (West Virginia University Board of Governors on Behalf of …, priority 2022, published 2024).

Structures are written as SMILES. Where two headings read alike, the source gives them in different places. Non-standard residues stand in square brackets, D forms with d. Residues, ends and D or L forms follow the SMILES beside them.

With `C[N@+]1(CC2CC2)CC[C@]23c4c5ccc(O)c4O[C@H]2C(=O)CC[C@@]3(O)[C@H]1C5` [methylnaltrexone], the “phosphorylation induced by morphine” value in the data set with NSCLC cells [1] is “decreased”. The “antiapoptotic impact of morphine” value with NSCLC cells [2] is “reversed”.

As for `O=C(NOCC1CC1)c1ccc(F)c(F)c1Nc1ccc(I)cc1Cl` [PD-184352], in the data set on CCLE NSCLC cell lines, a half-maximal response (EC50) required 2190 nM and the IC50 came out at 3990 nM.

`CN1CC[C@]23c4c5ccc(O)c4O[C@H]2[C@@H](O)C=C[C@H]3[C@H]1C5` [Morphine]: the “growth of NSCLC H460 cells” value in the data set with NSCLC H460 cells is given as “promoted”.

Take `CNC(=O)[C@H](Cc1c[nH]c2ccccc12)NC(=O)[C@@H](CC(=O)NO)CC(C)C` [GM6001]: the “increase in EGFR and HER2 transactivation” value (shortened to “increase”) in [3] (setting [11]) was “inhibited”.

In the data set with CCLE NSCLC cell lines (Homo sapiens), `Cn1cnc2c(F)c(Nc3ccc(Br)cc3Cl)c(C(=O)NOCCO)cc21` [selumetinib] came in with an EC50 of 647 nM and an IC50 of 2210 nM. Besides, the “safety profile in treating NSCLC” value in data set [4] is recorded as “better safety profile”.

`O=C1Nc2ccccc2/C1=C1/Nc2ccccc2C1=O` [indirubin]: in the data set with CCLE NSCLC cell lines (Homo sapiens), the EC50 is 630 nM and the IC50 is 3550 nM.

`C[C@@]1(C(=O)Nc2ccc(F)nc2)CCCN1c1nc(Nc2cc(C3CC3)n[nH]2)c2cccn2n1` [BMS-754807]: in the data set with CCLE NSCLC cell lines (Homo sapiens), the EC50 stood at 1020 nM and the IC50 was 1740 nM. Besides, the “effect on cisplatin and carboplatin” value in [5] (A549 cells) is recorded as “enhanced”. Besides, in data set [5] (setting [12]), the apoptosis entry is on record as “enhanced”; the “cell survival and wound closure” value was “reduced”.

In the data set on CCLE NSCLC cell lines (Homo sapiens), `CN1CCN(CCOc2cc(OC3CCOCC3)c3c(Nc4c(Cl)ccc5c4OCO5)ncnc3c2)CC1` [saracatinib] showed an EC50 of 983 nM and an IC50 of 1730 nM.

As to `COc1cc2c(cc1OC)[C@@H]1C(=O)c3ccc4c(c3O[C@@H]1CO2)C=CC(C)(C)O4` [deguelin], the “antiapoptotic impact of morphine” value in the data set on NSCLC cells [2] is “reversed”.

As for `COc1ccc(Cl)cc1NC(=O)Nc1cc(C)nc2ccccc12` [PQ-401], in the data set on CCLE NSCLC cell lines (Homo sapiens), a half-maximal response (EC50) required 2200 nM and the midpoint of inhibition, the IC50, lay at 5340 nM. Also, in the data set with U87MG glioma cells, the apoptosis result is on record as “induces”; the “in-vitro viability, proliferation, and mobility” value was “inhibits”. Also, the “in-vivo glioma tumor growth” value in the data set with glioma tumor is on record as “inhibits”. For the same compound, the “osteosarcoma cell proliferation, migration, and colony formation” value in the data set with U2OS and 143B lines is “inhibits”.

In the data set with CCLE NSCLC cell lines (Homo sapiens), `Cc1nc(Nc2ncc(C(=O)Nc3c(C)cccc3Cl)s2)cc(N2CCN(CCO)CC2)n1` [dasatinib] yielded an EC50 of 504 nM and an IC50 of 555 nM.

For the compound `Cc1cc(I)ccc1Nc1c(C(=O)NOCC2CC2)cc(F)c(F)c1F` [PD-198306], in the data set with CCLE NSCLC cell lines (Homo sapiens), a half-maximal effect (EC50) was put at 2030 nM and the IC50 came out at 3160 nM. Moreover, the oxidative phosphorylation entry in data set [6] was “uncouples”.

For the compound `O=C(NOC[C@H](O)CO)c1ccc(F)c(F)c1Nc1ccc(I)cc1F` [PD-0325901], in the data set with CCLE NSCLC cell lines, the EC50 came out at 386 nM and the IC50 amounted to 748 nM. Moreover, the “average IC50 and EC50 values (in words)” value in the data set with CCLE NSCLC cell lines (PRISM drug screening data) is “small”. In addition, the primary endpoint entry in the data set with refractory NSCLC is recorded as “did not meet”.

`O=S(=O)(O)c1cc(O)c(O)c(S(=O)(=O)O)c1` [Tiron]: the “increase” value in [3] (setting [11]) is given as “inhibited”.

In the data set with CCLE NSCLC cell lines (Homo sapiens), `C[C@]1(O)C[C@@H](c2nc(-c3ccc4ccc(-c5ccccc5)nc4c3)c3c(N)nccn32)C1` [linsitinib] displayed an EC50 of 2090 nM and an IC50 of 4250 nM. The “PFS or OS” value in the data set with non-progressing NSCLC was “did not improve”. In the data set on NSCLC, the patient outcomes is listed as “worse patient outcomes”.

In the data set on CCLE NSCLC cell lines (Homo sapiens), `O=C(NC[C@H](O)CO)c1ccncc1Nc1ccc(I)cc1F` [AS-703026, pimasertib] yielded an EC50 of 940 nM and an IC50 of 1510 nM. The “pERK in peripheral blood mononuclear cells” value in [7] is “inhibition”. The pERK result with pERK is on record as “inhibited”.

In the data set on CCLE NSCLC cell lines, `N#CC(=C(N)Sc1ccc(N)cc1)c1ccccc1C(F)(F)F` [MEK1-2-inhibitor] displayed an EC50 of 2200 nM and an IC50 of 4200 nM.

For the compound `CS(=O)(=O)CCNCc1ccc(-c2ccc3ncnc(Nc4ccc(OCc5cccc(F)c5)c(Cl)c4)c3c2)o1` [Lapatinib], the “increase” value in data set [3] is given as “inhibited”.

With `COc1cccc(-c2cc(=O)c3ccccc3o2)c1N` [PD-98059], in the data set on CCLE NSCLC cell lines, it took 607 nM to reach a half-maximal effect (EC50) and half-maximal inhibition (IC50) required 4980 nM.

In the data set with CCLE NSCLC cell lines (Homo sapiens), `N#CC(=C(/N)Sc1ccccc1N)/C(C#N)=C(\N)Sc1ccccc1N` [U-0126] returned an EC50 of 1870 nM and an IC50 of 4530 nM. For the same compound, the anchorage-independent growth entry in data set [8] is on record as “inhibits”. Moreover, the sensitivity to anoikis result in data set [9] was “sensitizes”. For the same compound, the “endogenous promoters containing AP-1 response elements” value in data set [10] is given as “inhibits”.

Take `COc1nc(C)cnc1NS(=O)(=O)c1cccnc1-c1ccc(-c2nnco2)cc1` [ZD4054]: the “increase” value in [3] (setting [11]) was “inhibited”.

Turning to `CC(C)C[C@@H]1NC(=O)[C@@H](C(C)C)NC(=O)[C@@H]2CCCN2C(=O)[C@@H](CC(=O)O)NC(=O)[C@@H](Cc2c[nH]c3ccccc23)NC1=O` [BQ-123] (cyclo(L[dW][dD]P[dV])), the “increase” value in data set [3] (setting [11]) is on record as “inhibited”.

For `COc1cc(Nc2c(C#N)cnc3cc(OCCCN4CCN(C)CC4)c(OC)cc23)c(Cl)cc1Cl` [bosutinib], in the data set with CCLE NSCLC cell lines (Homo sapiens), it took 1590 nM to reach a half-maximal effect (EC50) and it took 3160 nM to reach half-maximal inhibition (IC50).

In the data set with CCLE NSCLC cell lines (Homo sapiens), `COc1cc2ncnc(Nc3ccc(Cl)cc3F)c2cc1OC` [ZM-306416] came in with an EC50 of 1080 nM and an IC50 of 2630 nM. For the same compound, in the data set with trophoblast, the “trophoblast proliferation and migration” value was “impaired”.

For `Cc1ccc(-c2nn(C(C)(C)C)c3ncnc(N)c23)cc1` [PP-1], in the data set with CCLE NSCLC cell lines, the EC50 is 2080 nM and half-maximal inhibition (IC50) was put at 3410 nM. In addition, the “phosphorylation induced by morphine” value with NSCLC cells [1] is reported as “decreased”. Also, the “antiapoptotic impact of morphine” value with NSCLC cells [2] is on record as “reversed”.

`CC(C)(C)n1nc(-c2ccc(Cl)cc2)c2c(N)ncnc21` [PP-2]: in the data set with CCLE NSCLC cell lines, the EC50 is 2480 nM and the IC50 came out at 3190 nM. Moreover, the “increase” value in data set [3] (setting [11]) was “inhibited”.
